Where two headings read alike, the source gives them in different places.
System: ZIKV
Assay: ZIKV reporter virus-based antiviral screening on Huh7 cells
Assay type: cell-based, Zika virus
Details: Huh7 cells infected with recombinant luciferase reporter ZIKV (MOI about 0.1), luciferase signal
How it was run: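 Huh7 cells in 2% FBS assay medium infected at MOI about 0.1 with Renilla or Nano luciferase ZIKV premixed with nine-point compound dilutions, 48 hrs at 37° C. Luciferase signal normalized to DMSO controls as 100%; viability optionally by CellTiter-Glo with Rlu virus.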

Molecule | EC50 (Zika virus, Huh-7, 48 h) [nM] | EC50 (48 hrs, read-out: EC50) [nM]
COC(=O)N[C@H](C(=O)N1C[C@H](C)C[C@H]1c1nc(Cl)c(-c2cc3c4c(c2)OCc2cc(-c5[nH]c([C@@H]6C[C@@H](C)CN6C(=O)[C@@H](NC(=O)OC)C(C)C)nc5C(C)C)cc(c2-4)OC3)[nH]1)C(C)C [Compound 84, methyl ((S)-1-((2S,4R)-2-(5-(7-(4-chloro-2-((2S,4R)-1-((methoxycarbonyl)-L-valyl)-4-methylpyrrolidin-2-yl)-1H-imidazol-5-yl)-5,10-dihydrochromeno[5,4,3-cde]chromen-2-yl)-4-isopropyl-1H-imidazol-2-yl)-4-methylpyrrolidin-1-yl)-3-methyl-1-oxobutan-2-yl)carbamate] | 3.3 | –
COC(=O)N[C@H](C(=O)N1CC2(CC2)C[C@H]1c1nc(Cl)c(-c2cc3c4c(c2)OCc2cc(-c5[nH]c([C@@H]6CC7(CC7)CN6C(=O)[C@@H](NC(=O)OC)C(C)(C)C(F)(F)F)nc5C(C)C)cc(c2-4)OC3)[nH]1)C(C)(C)C(F)(F)F [Compound 85, methyl ((S)-1-((S)-6-(5-(7-(4-chloro-2-((S)-5-((S)-4,4,4-trifluoro-2-((methoxycarbonyl)amino)-3,3-dimethylbutanoyl)-5-azaspiro[2.4]heptan-6-yl)-1H-imidazol-5-yl)-5,10-dihydrochromeno[5,4,3-cde]chromen-2-yl)-4-isopropyl-1H-imidazol-2-yl)-5-azaspiro[2.4]heptan-5-yl)-4,4,4-trifluoro-3,3-dimethyl-1-oxobutan-2-yl)carbamate] | 1.4 | –
methyl ((S)-1-((S)-2-(5-(7-(4-chloro-2-((S)-1-((methoxycarbonyl)-L-valyl)pyrrolidin-2-yl)-1H-imidazol-5-yl)-5,10-dihydrochromeno[5,4,3-cde]chromen-2-yl)-4-isopropyl-1H-imidazol-2-yl)pyrrolidin-1-yl)-3-methyl-1-oxobutan-2-yl)carbamate [Compound 77] | – | 13.6

From US12497408B2, “Tetracyclic compounds and methods for the treatment of Zika virus infection” (priority 2021, dated 2025)
